Reference: US7247617B2, “Sixteen-member macrolide antiinfective agents” (Kosan Biosciences Incorporated, priority 2004, dated 2007)

Legend:
[1] = system: S. pneumoniae; experiment: Biological activity against bacterial strains: S. pneumoniae; format: cell-based, Streptococcus pneumoniae; design: Biological Activity, S. pneumoniae ATCC6301 / Biological Activity, S. pneumoniae ATCC700671 / Biological Activity, S. pneumoniae ATCC700676* / Biological Activity, S. pneumoniae ATCC700677* / Biological Activity, S. pneumoniae ATCC700905* / Biological Activity, S. pneumoniae ATCC700906* / Biological Activity, S. pneumoniae ATCC49619: unit not given here; settings: for Biological Activity, S. pneumoniae ATCC6301: strain ATCC6301; for Biological Activity, S. pneumoniae ATCC49619: strain ATCC49619; for Biological Activity, S. pneumoniae ATCC700671: strain ATCC700671; for Biological Activity, S. pneumoniae ATCC700676*: strain ATCC700676, macrolide resistant strain; for Biological Activity, S. pneumoniae ATCC700677*: strain ATCC700677, macrolide resistant strain; for Biological Activity, S. pneumoniae ATCC700905*: strain ATCC700905, macrolide resistant strain; for Biological Activity, S. pneumoniae ATCC700906*: strain ATCC700906, macrolide resistant strain
[2] = system: S. aureus; experiment: Biological activity against bacterial strains: S. aureus; format: cell-based, Staphylococcus aureus; design: unit not given here; settings: for Biological Activity, S. aureus ATCC6538p: strain ATCC6538p; for Biological Activity, S. aureus ATCC14154*: strain ATCC14154, macrolide resistant strain; for Biological Activity, S. aureus ATCC29213: strain ATCC29213; for Biological Activity, S. aureus ATCC33591*: strain ATCC33591, macrolide resistant strain; for Biological Activity, S. aureus ATCCBAA-39*: strain ATCCBAA-39, macrolide resistant strain; for Biological Activity, S. aureus ATCCBAA-44*: strain ATCCBAA-44, macrolide resistant strain
[3] = system: S. epidermidis; experiment: Biological activity against bacterial strains: S. epidermidis; format: cell-based, Staphylococcus epidermidis; settings: strain ATCC12228
[4] = system: E. faecalis; experiment: Biological activity against bacterial strains: E. faecalis; format: cell-based, Enterococcus faecalis; settings: strain ATCC51575
[5] = system: Haemophilus Influenzae; experiment: H. influenzae Activity; format: cell-based
[6] = system: a series of bacterial strains; experiment: Biological activity against a series of bacterial strains (overall statements); format: cell-based
Description: Results for S. pneumoniae, S. aureus, S. epidermidis, and E. faecalis are provided in Table B. Data on activity against H. influenzae for selected compounds are presented in Table C.

SMILES	Biological Activity, S. pneumoniae ATCC6301 [1]	Biological Activity, S. pneumoniae ATCC49619 [1]	Biological Activity, S. pneumoniae ATCC700671 [1]	Biological Activity, S. pneumoniae ATCC700676* [1]	Biological Activity, S. pneumoniae ATCC700677* [1]	Biological Activity, S. pneumoniae ATCC700905* [1]	Biological Activity, S. pneumoniae ATCC700906* [1]	Biological Activity, S. aureus ATCC6538p [2]	Biological Activity, S. aureus ATCC14154* [2]	Biological Activity, S. aureus ATCC29213 [2]	Biological Activity, S. aureus ATCC33591* [2]	Biological Activity, S. aureus ATCCBAA-39* [2]	Biological Activity, S. aureus ATCCBAA-44* [2]	Biological Activity, S. epidermidis ATCC12228 [3]	Biological Activity, E. faecalis ATCC51575 [4]	H. influenzae Activity, strain ATCC9006 [5]	H. influenzae Activity, strain ATCC49766 [5]	further results
CCC1OC(=O)CC(O)C(C)C(OC2OC(C)C(O)C(N(C)C)C2O)C(CC=O)CC(C)C(=NOCCCCc2cnc3ccccc3c2)C=CC(C)=CC1CO (stereo not drawn) [Compound J]	0.025	0.049	0.025	0.025	0.025	0.025	>12.5	0.025	0.20	0.20	>12.5	>12.5	>12.5	0.20	>12.5	6.25	6.25	decrease in activity compared to OMT ([5]; strains ATCC9006 and ATCC49766): ~4 fold
CC[C@H]1OC(=O)C[C@@H](O)[C@H](C)[C@@H](OC2OC(C)C(O)C(N(C)C)C2O)[C@@H](CC=O)C[C@@H](C)C(=N\OCCOc2ccccc2)/C=C/C(C)=C/C1CO (stereo partly drawn) [Compound IIb]	0.025	0.20	0.20	0.025	1.56	0.20	>12.5	0.39	1.56	1.56	>12.5	>12.5	>12.5	0.78	>12.5			activity of Z-configuration oxime versus its E counterpart (in words) [6]: more active than compound Ia
CCC1OC(=O)CC(O)C(C)C(OC2OC(C)C(O)C(N(C)C)C2O)C(CCN2CC(C)CC(C)C2)CC(C)C(=O)C=CC(C)=CC1CO (stereo not drawn) [Compound 8, 20-Deoxy(3,5-dimethyl-1-piperidine)OMT, reference compound]	0.39	0.78	0.78	1.56	>12.5	1.56	>12.5	0.39	1.56	1.56	>12.5	>12.5	>12.5	0.78	>12.5			antibiotic / antibacterial activity (in words) [6]: no antibiotic activity
CCC1OC(=O)CC(O)C(C)C(OC2OC(C)C(O)C(N(C)C)C2O)C(CC=O)CC(C)C(=NOCCCOc2ccc3ncccc3c2)C=CC(C)=CC1COC(=O)NCc1ccccc1 (stereo not drawn) [Compound DD]	0.049	0.049	0.049	0.049	0.2	>12.5	0.049	0.78	1.56	0.78	12.5	>12.5	>12.5	0.78	>12.5	12.5	12.5	
CC[C@H]1OC(=O)C[C@@H](O)[C@H](C)[C@@H](O[C@@H]2O[C@H](C)[C@@H](O)[C@H](N(C)C)[C@H]2O)[C@@H](CC=O)C[C@@H](C)C(=O)/C=C/C(C)=C/[C@@H]1CO [OMT, 5-O-mycaminosyltylonolide, reference compound]	0.025	0.098	0.049	0.78	6.25	0.78	>12.5	0.39	1.56	0.78	>12.5	>12.5	>12.5	0.39	>12.5	1.56	1.56	H. influenzae Activity, strain EH001 ([5]; strain EH001): 3.12; H. influenzae Activity, strain EH002 ([5]; strain EH002): 6.25; H. influenzae Activity, strain EH003 ([5]; strain EH003): 1.56
